Test system: Watanabe heritable hyperlipidemic (WHHL) rabbits
Assay: Determination of aortic lesioned area
Type: in vivo, rabbit
Settings: olmesartan 0.5 mg/kg, compound A 20 mg/kg
Procedure: Determination of Aortic Lesioned Area Watanabe heritable hyperlipidemic (WHHL) rabbits aged 16 weeks were divided in 4 groups consisting of 12 or 13 animals each: control group (5% gum arabic solution), olmesartan (0.5 mg/kg) group, compound A (20 mg/kg) group, and combination group of olmesartan (0.5 mg/kg) and compound A (20 mg/kg). These test agents were orally administered for 24 weeks. After the 24th week, the rabbits were sacrificed and their aorta were isolated to determine the aortic lumen area and arteriosclerotic lesion area in the aortic lumen. Then the percentage of arteriosclerotic lesion area in the aortic lumen [arteriosclerotic lesion area in the aortic lumen/the aortic lumen area]×100 (%)] was calculated.

CCCCCCCCN1CCc2c(C)c(CC(=O)O)c(C)c(NC(=O)C(C)(C)C)c21.O=S(=O)(O)O [compound A, N-(1-octyl-5-carboxymethyl-4,6-dimethylindolin-7-yl)-2,2-dimethylpropaneamide sulfate]
lesion area in % (percentage of arteriosclerotic lesion area in the aortic lumen) (WHHL rabbits aged 16 weeks, oral administration for 24 weeks, control group 59.7): 59.0% | arteriosclerotic lesion area compared with control / single-administration groups (in words) (WHHL rabbits, oral, 24 weeks): little affected
